Patent US20230357314A1, “METHODS FOR ULTRAFAST FORMATION OF DISULFIDE BONDS IN PEPTIDES AND PROTEINS” (TECHNION RESEARCH & DEVELOPMENT FOUNDATION LIMITED, priority 2020, published 2023)
In brackets after ≈: the same amount, converted by molar mass. Where two headings read alike, the source gives them in different places. Positions of bridges follow the written chain, without caps; N, C: chain ends. Residues, ends and D or L forms follow the SMILES beside them.

Assays:
[1] = system: methicillin resistant Staphylococcus aureus (MRSA); test: microbe, parasite or virus in culture; conditions: 17 h
[2] = system: methicillin resistant Staphylococcus aureus (MRSA); conditions: for MIC: MRSA growth after 17 h at 37° C., LB medium, absorbance at 600 nm, triplicate

| Structure (SMILES) | MIC [1] [µM] | MIC [2] [µM] | improvement of the antimicrobial activity ([2]; MRSA MIC analysis, worded as 'even in comparison to' trimethoprim (TMP)) | enhanced activity relative to the wild type plectasin ([2]; MRSA MIC, relative to wild type plectasin) |
| --- | --- | --- | --- | --- |
| COc1cc(Cc2cnc(N)nc2N)cc(OC)c1OC [TMP, trimethoprim] | 2 (≈ 0.581 µg/mL) | – | – | – |
| CC[C@H](C)[C@@H]1NC(=O)[C@H](CO)NC(=O)[C@H](CCCCN)NC(=O)[C@@H]2CSSC[C@@H](C(=O)N[C@@H](Cc3ccc(O)cc3)C(N)=O)NC(=O)[C@H](CCCCN)NC(=O)[C@@H]3CSSC[C@H](NC(=O)[C@H](CCC(N)=O)NC(=O)[C@H](CCSC)NC(=O)[C@H](CC(=O)O)NC(=O)[C@H](CC(=O)O)NC(=O)[C@H](CCC(=O)O)NC(=O)[C@H](CC(=O)O)NC(=O)[C@H](Cc4c[nH]c5ccccc45)NC(=O)[C@@H]4CCCN4C(=O)CNC(=O)[C@H](CC(N)=O)NC(=O)[C@@H](NC(=O)CNC(=O)[C@H](Cc4ccccc4)NC(=O)CN)CSSC[C@H](NC(=O)[C@H](Cc4ccc(O)cc4)NC(=O)CNC(=O)CNC(=O)[C@H](CCCCN)NC(=O)[C@H](Cc4ccc(O)cc4)NC(=O)CNC(=O)[C@H](CCCCN)NC1=O)C(=O)N[C@@H](C)C(=O)N[C@@H](CCCCN)C(=O)NCC(=O)NCC(=O)N[C@@H](Cc1ccccc1)C(=O)N[C@@H](C(C)C)C(=O)N3)C(=O)N[C@@H](Cc1c[nH]cn1)C(=O)N[C@@H](CC(N)=O)C(=O)N[C@@H](Cc1c[nH]cn1)C(=O)N2 [plectasin WT, plectasin, reference compound] | – | 5 (≈ 22 µg/mL) | – | – |
| CC[C@H](C)[C@@H]1NC(=O)[C@H](CO)NC(=O)[C@H](CCCCN)NC(=O)[C@@H]2CSSC[C@@H](C(=O)N[C@@H](Cc3ccc(O)cc3)C(N)=O)NC(=O)[C@H](CCCCN)NC(=O)[C@@H]3CSSC[C@H](NC(=O)[C@H](CCC(N)=O)NC(=O)[C@H](C)NC(=O)[C@H](CC(=O)O)NC(=O)[C@H](CC(=O)O)NC(=O)[C@H](CCC(=O)O)NC(=O)[C@H](CC(=O)O)NC(=O)[C@H](Cc4c[nH]c5ccccc45)NC(=O)[C@@H]4CCCN4C(=O)CNC(=O)[C@H](CC(N)=O)NC(=O)[C@@H](NC(=O)CNC(=O)[C@H](Cc4ccccc4)NC(=O)CN)CSSC[C@H](NC(=O)[C@H](Cc4ccc(O)cc4)NC(=O)CNC(=O)CNC(=O)[C@H](CCCCN)NC(=O)[C@H](Cc4ccc(O)cc4)NC(=O)CNC(=O)[C@H](CCCCN)NC1=O)C(=O)N[C@@H](C)C(=O)N[C@@H](CCCCN)C(=O)NCC(=O)NCC(=O)N[C@@H](Cc1ccccc1)C(=O)N[C@@H](C(C)C)C(=O)N3)C(=O)N[C@@H](Cc1c[nH]cn1)C(=O)N[C@@H](CC(N)=O)C(=O)N[C@@H](Cc1c[nH]cn1)C(=O)N2 [plectasinMet13Ala] (H-GFGCNGPWDEDDAQCHNHCKSIKGYKGGYCAKGGFVCKCY-NH2; disulfide 4-30, 15-37, 19-39; N-terminus assumed) | – | 1.25 (≈ 5.43 µg/mL) | four-fold | four-fold |
